We go through five molecules from patent US4742155A, “Plipastatin and method for preparation thereof” (Zaidan Hojin Biseibutsu Kagaku Kenkyu Kai, priority 1984, dated 1988).

Data set [1] relates to PCA (Passive Cutaneous Anaphylaxis) reactions in rats of the S-D strain. In words: PCA (Passive Cutaneous Anaphylaxis) reaction, Evans blue patch. Format: in vivo. Particulars: for Development of blue patch +, number of animals in a group of five / Development of blue patch -, number of animals in a group of five / Development of blue patch ±, number of animals in a group of five: 150 μl intradermal 5 min before challenge. The procedure: The experiment described below was accomplished in accordance with conventional methods. (Reference: J. Immunology, 106, 1002-1011, 1971). Rats were sensitized with egg albumin antigen to obtain an anti-serum. The rats of the S-D strain (male, 8 wk of age) were passively sensitized by intradermal injection of 50 μl of the thus obtained anti-egg albumin serum on their backs. Forty-eight hours later, each rat was challenged by the intravenous injection of physiological saline containing egg albumin (2.5 mg) plus Evans blue (2.5 mg). Sixty minutes after the injection, any development of blue dye patch due to the extravasation of Evans blue at the sensitized site was checked. Five minutes before the challenge, the test compound (150 μl) was intradermally injected at the sensitized site. DSCG (disodium cromoglycate) was used as a control.

In data set [2] the target is phospholipase D (derived from cabbage). In words: Inhibition of phospholipase D (antiphospholipase D activity, 14C-DPC). The format is biochemical. The following applies: Table 2. The text has this: The monitoring of the production of Plipastatin through the cultivation and purification steps is accomplished by measuring the antiphospholipase D activity in accordance with the following method.
Two layers are separated by centrifugation.

In data set [3] the target is phospholipase A2. As for the experimental part: (§1) The measurement of the antiphospholipase D activity is carried out by the method of Okuyama et al. described in A. Okuyama, T. Nishikiori, T. Aoyagi and H. Umezawa, Biochemistry international, 4, 417, 1982. Dipalmitoylphosphatidyl choline (DPC) (200 mM) and cholin-methyl-^14 C-DPC (4×10^4 dpm) are suspended ultrasonically in 390 μl of 50 mM tris-hydrochloric acid buffer (pH 5.7) containing 1 mM calcium chloride. To the resulting suspension is added 10 μl of a solution containing the sample to be tested. To the resulting mixture is added 100 μl of a solution of commercially available phospholipase D (derived from cabbage) and reacted at 37° C. for 20 minutes. The reaction is quenched by addition of 1.5 ml of a mixture of chloroform, methanol and conc. hydrochloric acid (2:1:0.02 v/v). To this mixture is then added 1 ml of 50% methanol containing […] potassium chloride and the mixture is stirred. Two layers are separated by centrifugation. The radioactivity (a) of choline liberated from the upper layer by the enzyme is measured. Also, the radioactivity (b) of the buffer free from the sample is measured as a blank test. The percentage inhibition of phospholipase activity is calculated according to the following formula: [(b-a)/b]×100.
(§2) IC50 values correspond to the concentration of the samples giving a 50% inhibition.
(§3) The measurement of the inhibition of phospholipase was accomplished by the method of Okuyama et al. set forth above.

For data set [4], the target named is phospholipase C. The procedure: as §1, §2, §3
Data set [5] deals with LPS-stimulated B-lymphocytes. In words: Reaction of B-lymphocyte blastogenesis, [3H]-thymidine uptake. Format: cell-based, BALB/c mice. The following applies: 100 μg/ml (given for Plipastatin A1; not given for B1); 100 μg/ml LPS, 72 hours. As for the experimental part: (§4) This experiment illustrates the suppressive effects of Plipastatin on the reaction of lymphocyte blastogenesis.
(§5) The reaction of lymphocyte blastogenesis was evaluated in terms of the incorporation of [^3 H]-thymidine in the DNA synthesis by both T-cells and B-cells stimulated with concanavalin A (hereunder referred to as Con A) and lipopolysaccharide of E. coli 055:B5. (Reference "Meneki Jikken Sosaho", or "Immunological Experiments Manual", pp. 2267-2276, The Japanese Society for Immunology).
(§6) In the reaction of T-lymphocyte blastogenesis, the T-cells were obtained by passing spleen cells of BALB/c mice (19 weeks old) through a nylon column to remove adsorptive cells and by then cultivating the resulting spleen cells in a plastic Petri dish for one hour to eliminate the remaining adsorptive cells. The cultivation of the T-cells was conducted in wells of a Falcon microtest plate using RPMI 1640 medium containing 20% fetal bovine serum, […] of Hepes, 100 μg/ml of streptomycin and 100 U/ml of penicillin G. The T-lymphocytes (1×10^5), 5 μg/ml of Con A and PLIPASTATIN A1 or B1 were added in that order to the wells and said medium was then added to the wells to make a total of 0.2 ml. The resulting mixture was incubated for 72 hours. The mixture was pulse-labeled with [^3 H]-thymidine at 8 hours before terminating the cultivation. […]

Data set [6] relates to delayed-type hypersensitivity (DTH) in CDF1 mice. In words: Cell-mediated immunity: delayed-type hypersensitivity (DTH) to SRBC, footpad swelling. Format: in vivo. The following applies: for Thickness of footpad: 24 h after secondary SRBC challenge, CDF1 mice; for Percentage with respect to the control: footpad swelling, control = 100%. The text has this:
This experiment illustrates the effects on the cell-mediated immunity in normal mice.
The activities of Plipastatin A1 and B1 on cell-mediated immunity were studied in terms of delayed-type hypersensitivity (DTH) caused by inoculating mice with antigenic sheep red blood cells (SRBC) in one footpad (Reference: J. Exp. Med., 139, 1529-1539, 1974).
CDF1 mice (female, 8 week of age) were inoculated intravenously with a suspension of 5×10^5 SRBC in physiological saline. At the same time, a single dose of an aqueous solution of 5 mg/Kg or 0.5 mg/Kg of Plipastatin A1 or B1 was administered intraperitoneally to the mice. Four days after the injection, the mice were subjected to the secondary challenge by subcutaneous injection of the other footpad with a suspension of 10^8 SRBC in physiological saline. Twenty-four hours later, the degree of footpad swelling (increasing in the thickness of the footpad) was measured with a caliper. The cell-mediated immunity suppressive effects of the test compounds were determined by comparing the degree of footpad swelling in the treated animals with the degree of footpad swelling (100%) in untreated, control animals that were subcutaneously injected in their footpads with an aqueous solution of SRBC in physiological saline in stead of the test compounds.

The conditions of data set [7]: mouse, in vivo, ip.
The nature of data set [8]: Solubility. Particulars: potassium salts (Table 1). The format is physicochemical. The procedure:
(All measurements were carried out using potassium salts of the compounds unless otherwise specified.)

The subject of data set [9] is Con A-stimulated T-lymphocytes. In words: Reaction of T-lymphocyte blastogenesis, [3H]-thymidine uptake. The following applies: 100 μg/ml (given for Plipastatin A1; not given for B1); 5 μg/ml Con A, 72 hours. The format is cell-based, BALB/c mice. As for the experimental part: as §4, §5, §6

Entries after “also recorded” stand apart in the source; their conditions may differ. Bridge positions count the residues as written; N and C are the ends. Square brackets hold non-standard residues; d marks the D form. Peptide text beside a SMILES is read from it. * marks the point of attachment. Hexadecanoyl(3R-OH) = CCCCCCCCCCCCC[C@@H](O)CC(=O)*; d(aThr) = C[C@@H](O)[C@@H](N)C(=O)O; dOrn = NCCC[C@@H](N)C(=O)O

For `O=C([O-])c1cc(=O)c2c(OCC(O)COc3cccc4oc(C(=O)[O-])cc(=O)c34)cccc2o1.[Na+].[Na+]` [DSCG, disodium cromoglycate, reference compound], in [1] (Conc. 59 μM), the “Development of blue patch +, number of animals in a group of five” value (from here on “Development of blue patch +”) was determined as 0; the “Development of blue patch -, number of animals in a group of five” value (“Development of blue patch -, number … of five” below) is 4; the “Development of blue patch ±, number of animals in a group of five” value (“Development of blue patch ±” for short) was determined as 1. In data set [1] (Conc. 590 μM), the “Development of blue patch +” value amounted to 0; the “Development of blue patch -, number … of five” value came to 4; the “Development of blue patch ±” value worked out at 1.
Consider `CCCCCCCCCCCCC[C@@H](O)CC(=O)N[C@@H](CCC(=O)O)C(=O)N[C@H](CCCN)C(=O)N[C@H]1Cc2ccc(cc2)OC(=O)[C@H]([C@@H](C)CC)NC(=O)[C@@H](Cc2ccc(O)cc2)NC(=O)[C@H](CCC(N)=O)NC(=O)[C@@H]2CCCN2C(=O)[C@@H](C(C)C)NC(=O)[C@H](CCC(=O)O)NC(=O)[C@@H]([C@@H](C)O)NC1=O` [Plipastatin B1] ({Hexadecanoyl(3R-OH)}-E[dOrn]Y[d(aThr)]E[dV]PQ[dY]I; ester 3-C), for which the “Degree of inhibition, IC50, phospholipase D” value in data set [2] was found to be 2.8 µg/mL. Also, in data set [3], the “Degree of inhibition, IC50, phospholipase A2” value came to 5.2 µg/mL. The “Degree of inhibition, IC50, phospholipase C” value in data set [4] amounted to 3.6 µg/mL. Moreover, the “Suppression of uptake of [3H]-thymidine into LPS-stimulated B-lymphocytes” value in [5] turned out to be 20%. Moreover, in data set [6] (dose 0.5 mg/Kg single i.p.), the Thickness of footpad was 97 ± 44 × 10^-2 mm and the “Percentage with respect to the control” value is reported as 99%. Moreover, in data set [6] (dose 5 mg/Kg single i.p.), the Thickness of footpad is on record as 57 ± 31 × 10^-2 mm and the “Percentage with respect to the control” value was 58%. In data set [7], this molecule yielded an LD50 of 250 to 500 mg/kg. Further, the Solubility entry in [8] is “Soluble in water, methanol, ethanol, and dimethyl sulfoxide; also recorded: Insoluble in organic solvents such as acetone, ethyl acetate,”. Moreover, the “Suppression of uptake of [3H]-thymidine into Con A-stimulated T-lymphocytes” value in data set [9] stood at 54%.
On to Plipastatin A1, for which the “Degree of inhibition, IC50, phospholipase D” value in data set [2] worked out at 2.1 µg/mL. Moreover, the “Degree of inhibition, IC50, phospholipase A2” value in [3] came out at 4.3 µg/mL. In addition, the “Degree of inhibition, IC50, phospholipase C” value in data set [4] worked out at 1.9 µg/mL. Moreover, the “Suppression of uptake of [3H]-thymidine into LPS-stimulated B-lymphocytes” value in [5] turned out to be 15%. The “Development of blue patch +” value worked out at 2 in data set [1] (Conc. 5.9 μM), 0 in [1] (Conc. 59 μM) and 0 in data set [1] (Conc. 590 μM). Further, the “Development of blue patch -, number … of five” value stood at 0 in data set [1] (Conc. 5.9 μM), 4 in data set [1] (Conc. 59 μM) and 5 in data set [1] (Conc. 590 μM). Moreover, the results for the “Development of blue patch ±” value in data set [1] (Conc. 5.9 μM), in [1] (Conc. 59 μM) and in data set [1] (Conc. 590 μM) were 3, 1 and 0, respectively. Also, the “Suppressive effects on PCA reactions” value in data set [1] (intradermal injections of 590 and 59 μM) is “comparable to those of DSCG”. For the same molecule, the Thickness of footpad in data set [6] (dose 0.5 mg/Kg single i.p.) was 63 ± 25 × 10^-2 mm; in data set [6] (dose 5 mg/Kg single i.p.) it was 48 ± 16 × 10^-2 mm. Moreover, the figures for the “Percentage with respect to the control” value in data set [6] (dose 0.5 mg/Kg single i.p.) and in data set [6] (dose 5 mg/Kg single i.p.) were 64% and 49%, respectively. The Solubility entry in data set [8] was “Soluble in water, methanol, ethanol, and dimethyl sulfoxide; also recorded: Insoluble in organic solvents such as acetone, ethyl acetate,”. Further, in [9], the “Suppression of uptake of [3H]-thymidine into Con A-stimulated T-lymphocytes” value amounted to 52%.
As to Plipastatin A2, the “Degree of inhibition, IC50, phospholipase D” value in [2] worked out at 3.8 µg/mL. Also, the “Degree of inhibition, IC50, phospholipase A2” value in data set [3] was determined as 3.4 µg/mL. The “Degree of inhibition, IC50, phospholipase C” value in data set [4] turned out to be 4.0 µg/mL. In addition, the Solubility result in data set [8] is “Soluble in water, methanol, ethanol, and dimethyl sulfoxide; also recorded: Insoluble in organic solvents such as acetone, ethyl acetate,”.
As for Plipastatin B2, the “Degree of inhibition, IC50, phospholipase D” value in [2] was determined as 3.3 µg/mL. Also, the “Degree of inhibition, IC50, phospholipase A2” value in [3] stood at 3.5 µg/mL. The “Degree of inhibition, IC50, phospholipase C” value in data set [4] was determined as 4.5 µg/mL. Besides, the Solubility result in [8] is “Soluble in water, methanol, ethanol, and dimethyl sulfoxide; also recorded: Insoluble in organic solvents such as acetone, ethyl acetate,”.

In general, LD50 refers to the dose expected to kill half of the subjects tested. A low value points to greater toxicity.
